Experimental data reported in publication PMC12057336 (Antimicrobial Agents and Chemotherapy, 2025).

Assays:
OCT3 = test system: OCT3; parameters: method as in PMID 27645247, PMID 26976869, PMID 27550354; details: cited from earlier work
human OATP1B3 = human OATP1B3 (Homo sapiens, UniProt Q9NPD5); details: 5 µM; 10 min; 37°C; vs mock cells
Description: (§1) OATP1B1-, OATP1B3-, OATP2B1-, NTCP-, OAT1-, and OAT3-transfected HEK293 cells were cultured in DMEM supplemented with 10% FBS, 100 U/mL penicillin-streptomycin at 37°C with 95% relative humidity atmosphere containing 5% CO2. All cells were seeded in 24-well plates at a density of 4 × 10^5 cells/well and cultured for 1–2 days until they reached 80%–90% confluence. Prior to the initiation of uptake studies, the cells were washed twice with HBSS buffer at 37°C. Membrane vesicles were stored at −80°C and thawed at 37°C prior to the initiation of the studies.
(§2) All uptake tests were performed in triplicates. The activities of transporter-transfected HEK293 cells were evaluated using relevant positive substrates and inhibitors. E17G (5 µM, OATP1B1 and OATP1B3), ES (2 µM, OATP2B1), ES (5 µM, OAT3), TCA (10 µM, NTCP), and PAH (20 µM, OAT1) were used as substrates of the transporters. The inhibitors for each transporter were rifampicin (200 µM, OATP1B1 and OATP1B3), erlotinib (10 µM, OATP2B1), CsA (20 µM, NTCP), and probenecid (200 µM, OAT1 and OAT3).
(§3) The cells were washed three times with ice-cold HBSS buffer. […] The total protein concentration was measured using a BCA Protein Assay Kit. The uptake rates of HEK293-OATP1B1, HEK293-OATP1B3, HEK293-OATP2B1, HEK293-NTCP, HEK293-OAT1, HEK293-OAT3, and mock cells were calculated. […]

human OATP1B1 = human OATP1B1 (Homo sapiens, UniProt Q9Y6L6); details: 5 µM; 10 min; 37°C; vs mock cells
Description: as §1, §2, §3

OAT3 = details: cited from earlier work
OATP2B1 = details: cited from earlier work
[1] = Pharmacokinetics (plasma, urine) of linezolid and metabolites after i.g. or i.v. linezolid in control, CCl4-induced and 5/6 Nx rats; details: for AUC(0-inf): AUC0-∞
Description: The control group rats were intraperitoneally injected with equal volumes of soybean oil. […] The upper and lower poles of the left kidney were removed under urethane anesthesia (1 g/kg; administered by i.p. injection). One week later, the right kidney was completely excised. Rats in the control group underwent a sham operation ([35]). Serum creatinine (CREA), blood urea nitrogen (BUN), aspartate aminotransferase (AST), alanine aminotransferase (ALT), alkaline phosphatase (ALP), lactate dehydrogenase (LDH), and total bilirubin (TBIL) levels were measured using commercial kits (Shanghai Enzyme-linked Biotechnology Co., Ltd., Shanghai, China) according to the protocols described by the manufacturer before pharmacokinetic experiments.
The rats were first divided into two groups: i.v. or i.g. administration groups. These two groups were further divided into the following four subgroups (n = 5): soybean oil-treated control rats, CCl4-induced rats, sham-operated control rats, and 5/6 Nx rats. […] Blood samples (200 µL) were collected from the retro-orbital venous plexus into heparinized tubes at 0 (pre-dose), 0.25, 0.5, 0.75, 1, 2, 3, 4, 6, 8, 12, and 24 h after i.g. administration, and at 0 (pre-dose), 0.083, 0.25, 0.5, 0.75, 1, 2, 3, 4, 6, 8, 12, and 24 h after i.v. administration. Plasma samples were separated by centrifugation at 6,000 × g for 5 min at 4°C and stored at −80°C until further analysis using HPLC.
Chromatographic separation was performed using the SinoPak BEH T-C18 column (4.6 mm × 150 mm, 5 µm, Hi-tech Zone, China) at 35°C. A photodiode array detector was set at a wavelength of 254 nm. The mobile phase consisted of 0.1% (vol/vol) formic acid in water (A) and acetonitrile (B). The gradient conditions were as follows: 0–4.0 min, 14%–86% B; 4.0–5.0 min, […]; 5.0–5.7 min, return to 14% B; 5.7–8.0 min, equilibrium. The flow rate was 1.0 mL/min.
Plasma and tissue homogenate samples (100 µL) were mixed with 10 µL of IS (50.0 mg/L) and 200 µL of acetonitrile, followed by vortex-mixing for 3 min. The mixture was centrifuged at 15,000 × g for 15 min at 4°C. Then, 5 µL of the supernatant was analyzed. The urine samples were diluted and directly injected for measurement.
The area under the plasma concentration-time curve from 0 to infinity (AUC0-∞), time to maximum concentration (tmax), Cmax, t1/2, CL, and Vd were calculated by non-compartmental model analysis using the Phoenix 8.1.0 WinNonlin software (Pharsight Corp, Princeton, NJ, USA). The renal clearance (CLr), in vitro hepatic clearance (CLint, in vitro), and bioavailability (F) were calculated using the following equations:
F (%) = Div×AUC0−∞, ig/Dig×AUC0−∞, iv
Atotal is the total cumulative amount excreted in urine over 24 h. D is the administered dose. The scale factor is 4,680 (10^6 cells/kg). All data are expressed as mean ± standard deviation (SD). Statistical analysis was performed using Student’s two-tailed unpaired t-test or nonparametric Mann-Whitney U test with SPSS Statistics 19.0 (SPSS Inc., Chicago, IL, USA). Statistical significance was set at P < 0.05.

[2] = Sprague-Dawley, rat, in vivo, iv
[3] = Sprague-Dawley, rat, in vivo, po, 63 mg/kg

Chain of human OATP1B1 (Q9Y6L6 whole entry): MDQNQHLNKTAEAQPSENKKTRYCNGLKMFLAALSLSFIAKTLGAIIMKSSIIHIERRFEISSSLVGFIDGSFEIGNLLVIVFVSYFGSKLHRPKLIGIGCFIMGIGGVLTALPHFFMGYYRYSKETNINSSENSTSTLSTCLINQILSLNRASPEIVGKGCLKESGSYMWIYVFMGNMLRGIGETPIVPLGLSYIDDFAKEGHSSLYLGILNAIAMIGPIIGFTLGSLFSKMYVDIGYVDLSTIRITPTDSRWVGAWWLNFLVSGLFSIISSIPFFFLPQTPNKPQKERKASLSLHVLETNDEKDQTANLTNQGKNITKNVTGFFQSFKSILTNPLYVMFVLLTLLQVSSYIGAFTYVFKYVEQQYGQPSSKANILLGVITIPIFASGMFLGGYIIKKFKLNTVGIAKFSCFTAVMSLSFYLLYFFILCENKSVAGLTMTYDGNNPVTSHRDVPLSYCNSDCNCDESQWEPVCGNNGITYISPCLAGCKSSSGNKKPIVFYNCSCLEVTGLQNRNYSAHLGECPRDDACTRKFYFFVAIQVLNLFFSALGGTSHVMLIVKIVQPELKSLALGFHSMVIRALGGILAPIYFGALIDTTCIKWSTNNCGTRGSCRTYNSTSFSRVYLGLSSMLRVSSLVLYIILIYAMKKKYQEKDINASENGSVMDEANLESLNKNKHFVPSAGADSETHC
Chain of human OATP1B3 (Q9NPD5 whole entry): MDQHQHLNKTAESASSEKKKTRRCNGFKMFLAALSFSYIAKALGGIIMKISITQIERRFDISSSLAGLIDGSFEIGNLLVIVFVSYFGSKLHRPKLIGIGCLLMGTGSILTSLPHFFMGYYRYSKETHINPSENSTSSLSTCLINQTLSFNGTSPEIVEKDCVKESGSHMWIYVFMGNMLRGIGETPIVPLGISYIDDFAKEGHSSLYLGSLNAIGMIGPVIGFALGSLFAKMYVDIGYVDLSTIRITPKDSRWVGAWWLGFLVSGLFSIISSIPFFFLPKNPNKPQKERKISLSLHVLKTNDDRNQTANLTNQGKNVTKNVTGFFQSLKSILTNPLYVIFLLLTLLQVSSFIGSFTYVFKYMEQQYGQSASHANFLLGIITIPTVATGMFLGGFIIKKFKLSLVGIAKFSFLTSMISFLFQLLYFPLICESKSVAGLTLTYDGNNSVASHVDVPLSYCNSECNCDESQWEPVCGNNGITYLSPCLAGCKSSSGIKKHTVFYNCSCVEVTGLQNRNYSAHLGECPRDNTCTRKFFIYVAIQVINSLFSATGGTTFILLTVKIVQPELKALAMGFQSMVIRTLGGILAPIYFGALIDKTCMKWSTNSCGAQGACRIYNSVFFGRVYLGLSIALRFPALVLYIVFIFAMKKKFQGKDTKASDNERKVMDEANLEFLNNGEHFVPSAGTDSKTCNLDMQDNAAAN

For CC(=O)NC[C@H]1CN(c2ccc(N3CCOCC3)c(F)c2)C(=O)O1 [Linezolid], which “inhibitor of OCT3” value (OCT3) is on record?
Its value is “not an inhibitor”.

What about the “substrate for OATP1B3” value (human OATP1B3) of the same compound?
The value was “not a substrate”.

What about the “substrate for OATP1B1” value (human OATP1B1) of the same compound?
The value was “not a substrate”.

And the “inhibitor of OAT3” value (OAT3)?
The value was “inhibitor”.

What about the “inhibitor of OATP2B1” value (OATP2B1) of the same compound?
Its value is “inhibitor”.

And the “change of cumulative urinary excretion rate” value ([1]; 5/6 Nx rats vs control, P < 0.05)?
Its value is “significantly decreased”.

And the “change of cumulative urinary excretion rate” value ([1]; CCl4-induced rats)?
The value was “no significant changes”.

And the “decrease of CLr in comparison to sham-operated control rats” value ([1]; Sprague-Dawley, rat, in vivo)?
The value was 50.0%.

And the “decrease of CL in comparison to soybean oil-treated control rats” value [1, 2]?
The value was 27.0%.

And the “decrease of CLr in comparison to sham-operated control rats” value [1, 2]?
Its value is 66.7%.

What about the AUC(0-inf) ([1]; Sprague-Dawley, rat, in vivo, iv, 25 mg/kg) of the same compound?
The AUC(0-inf) was 69.3 ± 8.67 µg·h/mL.

And the clearance ([1]; Sprague-Dawley, rat, in vivo, iv, 25 mg/kg, CL)?
The clearance was 6.17 mL/min/kg.

And the Vd ([1]; Sprague-Dawley, rat, in vivo, iv, 25 mg/kg, Vd)?
The Vd was 0.63 ± 0.05 L/kg.

What about the “decrease of CL in comparison to soybean oil-treated control rats” value ([1]; Sprague-Dawley, rat, in vivo, po) of the same compound?
The value was 13.8%.

And the Tmax [1, 3]?
The Tmax was 0.9 ± 0.14 h.

What about the tmax [1, 3] of the same compound?
The tmax was 1.0 h.

And the AUC(0-inf) [1, 3]?
Its AUC(0-inf) is 220 ± 27.6 µg·h/mL.

What about the CL renal ([1]; Sprague-Dawley, rat, in vivo, po, 63 mg/kg, CLr) of the same compound?
Its CL renal is 0.333 mL/min/kg.

And the Cmax ([1]; Sprague-Dawley, rat, in vivo, po, 63 mg/kg, Cmax)?
The Cmax was 35300 ± 1100 ng/mL.

And the half-life ([1]; Sprague-Dawley, rat, in vivo, po, 63 mg/kg, t1/2)?
The half-life was 1.84 ± 0.27 h.
